From patent US9644175B2, “Antimicrobial amino-salicylic acid derivatives” (BASF SE, priority 2009, dated 2017)

Columns and labels:
Type in all cases: cell-based
[1] = test system: Pseudomonas aeruginosa ATCC 15442; test: Suspension test of compound in surfactants and shampoo; settings: 24 h, start 10^5 cfu/ml
Protocol: (§1) The following examples illustrate the invention. Unless indicated otherwise, percentages refer to percent by weight (b.w.), room temperature denotes a temperature from the range 20-24° C. The determination of bactericidal activity and fungicidal activity in surfactants or shampoo formulations of the present invention is measured in a suspension test according to trivial modifications of the European Standard methods EN 1040 and EN 1275, respectively. The compound of the invention is incorporated in an anionic surfactant, for example sodium laureth sulphate (Epicol ESB 70), or a non-ionic surfactant such as decyl glucoside (Plantacare 2000UP), or an amphoteric surfactant, for example cocamidopropyl betaine (Tego Betain F50). Each of the surfactants is tested at 10% a.i. Furthermore, the 5-amino-salicylic acid derivatives of the invention are incorporated in a typical shampoo formulation with the following composition: • 0.01 to 5% by weight of 5 amino-salicylic acid derivative, • 7.0% by weight sodium laureth-2-sulfate, • 2.5% by weight decyl glucoside • 4.0% by weight cocamidopropyl betaine, • 1.0% by weight NaCl and • water ad 100%. • pH 6 is adjusted with NaOH. The surfactant solutions and shampoo formulations tested contain 1% b.w. of the compound of the invention. The cell densities of the bacterial suspensions used as inoculums for the suspension tests are as follows (cfu=colony forming units): [table] The cell density in the test is adjusted to 10^5 cfu/ml. These test mixtures are incubated at room temperature (22° C.+/−2° C.) and aliquots of 1 ml test mixture are taken after set contact times for determination of the residual cell count. For inactivation of the antimicrobial compounds, the 1 ml aliquots are diluted in 1:10 steps with an aqueous solution containing 10% Tween 80 (a polyethoxylated sorbitan ester surfactant), 3% lecithin, 0.1% histidine and 0.5% sodium thiosulfate.

[2] = test system: Escherichia coli ATCC 10536; test: as above; settings: 24 h, start 10^5 cfu/ml
Protocol: as §1

[3] = test system: Staphylococcus aureus ATCC 6538; test: as above; settings: 24 h, start 10^5 cfu/ml
Protocol: as §1

[4] = test system: Candida albicans ATCC 10231; test: Suspension test, fungicidal activity (modified EN 1275), Table A; settings: contact time 24 h
Protocol: The following examples illustrate the invention. Unless indicated otherwise, percentages refer to percent by weight (b.w.), room temperature denotes a temperature from the range 20-24° C. The determination of bactericidal activity and fungicidal activity in surfactants or shampoo formulations of the present invention is measured in a suspension test according to trivial modifications of the European Standard methods EN 1040 and EN 1275, respectively. For the suspension tests, an appropriate concentration of the test compound is mixed with a bacterial suspension resulting in a final cell count in the mixture of about 10^7 cfu/ml. These test mixtures are incubated at room temperature (22° C.+/−2° C.) and aliquots of 1 ml test mixture containing the test bacteria are taken after set contact times for determination of the residual cell count of test bacteria. For inactivation of the antimicrobial compounds, the 1 ml aliquots are diluted in 1:10 steps with an aqueous solution containing 10% of Tween 80 (a polyethoxylated sorbitan ester surfactant), 3% lecithin, 0.1% histidine and 0.5% sodium thiosulfate. The fungicidal activity of the compounds of the present invention is measured in a suspension test (trivial modification of the European Standard method EN 1275). The compound of the invention is dissolved in ethanol resulting in a 1% b.w. solution of the compound. […]

[5] = test system: Pseudomonas aeruginosa ATCC15442; test: Suspension test, bactericidal activity (modified EN 1040); settings: room temperature, start about 10^7 cfu/ml
Protocol: (§2) The following examples illustrate the invention. Unless indicated otherwise, percentages refer to percent by weight (b.w.), room temperature denotes a temperature from the range 20-24° C. The determination of bactericidal activity and fungicidal activity in surfactants or shampoo formulations of the present invention is measured in a suspension test according to trivial modifications of the European Standard methods EN 1040 and EN 1275, respectively. The bactericidal activity of the compounds of the present invention is measured in a suspension test (trivial modification of the European Standard method EN 1040). Substances listed in Table 1 are tested against gram positive and gram negative bacteria. The compound of the invention is dissolved in ethanol resulting in a 1% b.w. stock solution. The cell densities of the bacterial suspensions used as inoculums for the suspension test are as follows (cfu=colony forming units): [table] For the suspension tests, an appropriate concentration of the test compound is mixed with a bacterial suspension resulting in a final cell count in the mixture of about 10^7 cfu/ml. These test mixtures are incubated at room temperature (22° C.+/−2° C.) and aliquots of 1 ml test mixture containing the test bacteria are taken after set contact times for determination of the residual cell count of test bacteria. For inactivation of the antimicrobial compounds, the 1 ml aliquots are diluted in 1:10 steps with an aqueous solution containing 10% of Tween 80 (a polyethoxylated sorbitan ester surfactant), 3% lecithin, 0.1% histidine and 0.5% sodium thiosulfate.

[6] = test system: Escherichia coli ATCC 10536; test: as above; settings: room temperature, start about 10^7 cfu/ml
Protocol: as §2

[7] = test system: Staphylococcus aureus ATCC 6538; test: as above; settings: room temperature, start about 10^7 cfu/ml
Protocol: as §2

[8] = test system: Aspergillus niger ATCC 6275; test: Suspension test of compound in surfactants and shampoo; settings: 7 days, start 10^5 cfu/ml
Protocol: as §1, with “respectively. The fungicidal activity of the compounds of the present invention is measured in a suspension test (trivial modification of the European Standard method EN 1275).” for “respectively.”

[9] = test system: Candida albicans AJCC 10231; test: as above; settings: 24 h, start 10^5 cfu/ml
Protocol: as §1, with “respectively. The fungicidal activity of the compounds of the present invention is measured in a suspension test (trivial modification of the European Standard method EN 1275).” for “respectively.”

[10] = 1% b.w. compound in amphoteric surfactant (cocamidopropyl betaine, 10% a.i.)
[11] = 1% b.w. compound in anionic surfactant (sodium laureth sulfate, 10% a.i.)
[12] = 1% b.w. compound in non-ionic surfactant (decyl glucoside, 10% a.i.)
[13] = 1% b.w. compound in shampoo formulation, pH 6

CCCCCC(=O)Nc1ccc(O)c(C(=O)O)c1 [compound 596, 5-hexanoylamino-salicylic acid]
log reduction [1, 10]: >3 log
residual cell count [1, 10]: <100 cfu/ml
log reduction [1, 11]: >3 log
residual cell count [1, 11]: <100 cfu/ml
log reduction [1, 12]: >3 log
residual cell count [1, 12]: <100 cfu/ml
log reduction [2, 10]: >3 log
residual cell count [2, 10]: <100 cfu/ml
log reduction [2, 11]: >3 log
residual cell count [2, 11]: <100 cfu/ml
log reduction [2, 12]: >3 log
residual cell count [2, 12]: <100 cfu/ml
log reduction [2, 13]: >3 log
residual cell count [2, 13]: <100 cfu/ml
log reduction [3, 10]: >3 log
residual cell count [3, 10]: <100 cfu/ml
log reduction [3, 11]: >3 log
residual cell count [3, 11]: <100 cfu/ml
log reduction [3, 12]: >3 log
residual cell count [3, 12]: <100 cfu/ml
log reduction [3, 13]: >3 log
residual cell count [3, 13]: <100 cfu/ml
log reduction [4]: >4 log
residual cell count [4]: <100 cfu/ml
log reduction ([5]; contact time 30 min): >5 log
residual cell count ([5]; contact time 30 min): <100 cfu/ml
log reduction ([6]; contact time 30 min): >5 log
residual cell count ([6]; contact time 30 min): <100 cfu/ml
log reduction ([7]; contact time 30 min): >5 log
residual cell count ([7]; contact time 30 min): <100 cfu/ml
log reduction [8, 10]: 2.3 log
residual cell count [8, 10]: 1.2 × 10^3 cfu/ml
log reduction [8, 11]: 2.1 log
residual cell count [8, 11]: 1.7 × 10^3 cfu/ml
log reduction [8, 12]: 1.1 log
residual cell count [8, 12]: 1.9 × 10^4 cfu/ml
log reduction [9, 10]: >3 log
residual cell count [9, 10]: <100 cfu/ml
log reduction [9, 11]: 1.2 log
residual cell count [9, 11]: 1.4 × 10^4 cfu/ml
log reduction [9, 12]: >3 log
residual cell count [9, 12]: <100 cfu/ml

CCCCCCCCCCCC(=O)Nc1ccc(O)c(C(=O)O)c1 [compound 597]
log reduction ([7]; contact time 24 h): >5 log
residual cell count ([7]; contact time 24 h): 1.6 × 10^3 cfu/ml

O=C(O)c1cc(NC(=O)C2CCCCC2)ccc1O [compound 601, 5-cyclohexanoylamino-salicylic acid]
log reduction ([5]; contact time 24 h): 4.8 log
residual cell count ([5]; contact time 24 h): 6.1 × 10^2 cfu/ml
log reduction ([6]; contact time 24 h): 4.3 log
residual cell count ([6]; contact time 24 h): 9.1 × 10^2 cfu/ml
log reduction ([7]; contact time 24 h): >5 log
residual cell count ([7]; contact time 24 h): <100 cfu/ml
